Like-named read-outs stand apart in the source and are kept apart here.
How the values were obtained:
K-Ras4B bound to GDP [1] = biological target: T1, K-Ras4B bound to GDP (Homo sapiens, UniProt P01116); assay: NMR titration (1H-15N HSQC chemical shift perturbation) of GDP-bound K-Ras4B; format: binding
T1 construct: made in house; host or cells: E. coli
Experimental: The NMR titration experiments, resonance assignments, and data handling were performed as previously published. Spectra were acquired on Bruker DRX 600 and AVANCE III HD 700 spectrometers, except for ^19F NMR spectra that were recorded on a Bruker DPX 250 spectrometer at 235 MHz. The reference experiment for the competitive titration of ^14N SOS^cat and BPAF to ^15N-enriched GDP-bound K-Ras4B was acquired in the presence of 0.2 mM BPAF in PBS at pH 7.4.

GDP-bound K-Ras4B = biological target: T2, GDP-bound K-Ras4B (Homo sapiens, UniProt P01116); assay: Shift of Y157 amide NMR resonance towards active GppNHp-bound state; format: binding; details: saturated ligand-protein complex
T2 construct: made in house; host or cells: E. coli
Experimental: (§1) The NMR titration experiments, resonance assignments, and data handling were performed as previously published. Spectra were acquired on Bruker DRX 600 and AVANCE III HD 700 spectrometers, except for ^19F NMR spectra that were recorded on a Bruker DPX 250 spectrometer at 235 MHz. The reference experiment for the competitive titration of ^14N SOS^cat and BPAF to ^15N-enriched GDP-bound K-Ras4B was acquired in the presence of 0.2 mM BPAF in PBS at pH 7.4. Upon titration of ^14N SOS^cat to a 0.4 mM sample of GDP-bound ^15N-enriched K-Ras4B, line broadening and/or disappearance of NMR resonances for GDP-loaded K-Ras4B bound to SOS^cat is observed probably due to rotational correlation effects of the approx. 80 kDa protein-protein complex. Line broadening can already be detected in 2D ^1H-^15N HSQC spectra of ^14N SOS^cat:^15N-enriched GDP-bound K-Ras4B at a molar ratio of 1:1, and this effect is more pronounced when extra SOS^cat is added to adjust a molar ratio of 1:2. Addition of an increasing amount of BPAF to the 1:2 ^15N-enriched K-Ras4B/^14N SOS^cat complex (1:2:0.5, 1:2:1, 1:2:4) recovers the backbone amide proton NMR resonances in 2D ^1H-^15N HSQC spectra. The acquired NMR spectrum is similar to the ^15N-enriched GDP-bound K-Ras4B:BPAF ^1H-^15N HSQC spectrum.

K-Ras4B [2] = biological target: T3, K-Ras4B (Homo sapiens, UniProt P01116); set-up: made in house; host or cells: E. coli (given for K-Ras4B only); method as in PMID 26867649; details: cited from earlier work
Hela cells = assay: MTT cytotoxicity assay; format: cell-based; details: Homo sapiens, Hela cells exposed for 72 hrs
Experimental: Hela cells were used to determine IC50 values for different bisphenols. Therefore cells (1100 cells/well) were seeded in 96 well plates. 24 h after seeding cells were treated with individual bisphenols or corresponding DMSO in indicated concentrations up to 72 h. Subsequently, 10 μL of a MTT stock solution (5 mg/mL) were added to each well for 4 h. The mixture was removed carefully via pipetting, and the remaining formazan crystals formed were dissolved by 100 μL DMSO/10% SDS/0.01 M acetic acid for 15 min. The absorbance (570 nm and reference 620 nm) was determined using an absorbance reader and blank values were subtracted. Prism 6 (GraphPad Software, La Jolla, CA, USA) was used to calculate IC50 values.

N-Ras (1-170) = biological target: T4, N-Ras (1-170) (Homo sapiens, UniProt P01111); assay: NMR-based titration of N-Ras; format: binding
T4 construct: For N-Ras (1-170), we also observed a similar pattern of CSPs; made in house

Ras = assay: G-LISA Ras activation assay; format: cell-based; details: serum-starved HEK293T cells, BPAF 20 µM, 1, 2, 4 h
Experimental: (§2) G-LISA Ras activation assay was performed as described before. Briefly, HEK293T cells were seeded in 10-cm dishes followed by overnight incubation and afterwards serum-starved for 16 h. Cells were then treated with individual bisphenols (BPAF [20 µM] and BPNH2 [33 µM]) or DMSO (control, Ctrl) in a time-dependent manner (1, 2, 4 h), subsequently lysed and the protein concentration was determined using Precision RedTM Advanced Protein Assay Reagent. Quantitative analysis of active Ras was performed with a G-LISA Ras activation assay (Cytoskeleton, Inc., Denver CO, USA) using 1 mg/mL of the sample. The signal intensity was determined by measuring absorbance at 490 nm using a microplate spectrophotometer. Additionally, these lysates were subjected to western blot analysis in order to determine the activation of ERK and AKT signalling. To test for statistical significance, a two-tailed Student’s t-test was applied using Prism version 5.0 (GraphPad Software, La Jolla, CA, USA).

Rap-1A = biological target: T5, Rap-1A (Homo sapiens, UniProt P62834); assay: NMR titration of Rap-1A; format: binding; details: up to a BPAF concentration of 5 mM
T5 construct: Rap1A comprising residues 1–170 were expressed in E. coli; made in house; host or cells: E. coli
T5 sequence (P62834 1-170): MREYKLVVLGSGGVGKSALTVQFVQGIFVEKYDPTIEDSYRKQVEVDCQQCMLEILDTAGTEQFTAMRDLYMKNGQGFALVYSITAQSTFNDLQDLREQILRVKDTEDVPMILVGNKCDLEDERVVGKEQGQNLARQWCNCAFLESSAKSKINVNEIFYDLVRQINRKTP

AKT kinase = assay: Western blot of AKT phosphorylation (pAKT/total AKT); format: cell-based; details: serum-starved HEK293T cells, BPAF 20 µM, BPNH2 33 µM
Experimental: as §2

[3] = biological target: T6, GDP-bound K-Ras4B/SOS^cat complex (Homo sapiens, UniProt P01116); assay: Competitive NMR titration of 15N K-Ras4B with 14N SOScat and ligand; format: binding; details: BPAF added to 1:2 K-Ras4B/SOScat complex, recovery of resonances
T6 construct: made in house; host or cells: E. coli (given for K-Ras4B only)
Experimental: as §1

K-Ras4B [4] = biological target: T3, K-Ras4B; assay: GDI (guanine nucleotide dissociation inhibition) assay with mantGppNHp; format: biochemical; set-up: made in house; host or cells: E. coli
Experimental: (§3) The SOS^cat assay was performed as described. Briefly, a solution of 1 µM Ras*mantGDP, 200 µM GDP was mixed with different concentrations of BPNH2 and incubated at 20 °C for 5–10 min. To prevent insolubility of the BPNH2, 5% v/v DMSO was applied. After adding 0.5 µM of SOS^cat, a fluorescence spectrum was recorded with a Perkin Elmer LS50B instrument applying an excitation wavelength of 366 nm and an emission wavelength of 442 nm. The kobs value describing the dissociation rate of the nucleotide is obtained for each BPNH2 concentration from a single exponential fit to the fluorescence time course. The GDI (guanine nucleotide dissociation inhibitor) assay is carried out similar to the SOS^cat assay: Instead of mantGDP, the non-hydrolysable GTP analogue mantGppNHp is used but no SOS^cat is added here. Again, the dissociation of the fluorescent nucleotide from Ras in the presence of various BPNH2 concentrations is detected by the decrease of fluorescence and the time dependence yields the kobs values. A plot of the kobs values versus BPNH2 concentration fitted by a binding isotherm yields the KD value of the BPNH2 complex (Figure 4 and Figure S7).
Supporting Figure 7. GDI assay carried out in triplicate (black, red, green; upper panel): The GDI (guanine nucleotide dissociation inhibitor) assay is carried out similar to the SOScat assay: Instead of mantGDP, the non-hydrolysable GTP analogue mantGppNHp is used but no SOScat is added here. Again, the dissociation of the fluorescent nucleotide from Ras in the presence of various
BPNH2 concentrations is detected by the decrease of fluorescence and the time dependence yields the kobs values. A plot of the kobs values versus BPNH2 concentration fitted by a binding isotherm yields the KD value of the BPNH2 complex (please also refer to […]
MTT cytotoxicity assay (lower four panels): The IC50 values in Hela cells exposed for 72 hrs to BPs were determined as follows: 53.79 […]
(1 picture or pasted object on this page, not shown here)

ERK = assay: Western blot of ERK phosphorylation (pERK/total ERK); format: cell-based; details: serum-starved HEK293T cells, BPAF 20 µM, BPNH2 33 µM
Experimental: as §2

K-Ras4B [5] = biological target: T3, K-Ras4B; assay: SOScat-catalysed guanine nucleotide exchange assay (mant-GDP fluorescence); format: biochemical; set-up: made in house; host or cells: E. coli (given for K-Ras4B only)
Experimental: as §3

H-Ras = biological target: T7, H-Ras (Homo sapiens, UniProt P01112); assay: NMR-based titration of H-Ras; format: binding
T7 construct: made in house; host or cells: E. coli

[6] = Solubility of the ligands in the NMR study; details: NMR study samples
K-Ras4B bound to GDP [7] = biological target: T1, K-Ras4B bound to GDP; details: NMR titration, cited from earlier work
[8] = NMR titration, GDP-bound 15N-enriched K-Ras4B

SMILES: Oc1ccc(C(F)(F)F)cc1 [AFX, 4-(Trifluoromethyl)phenol, reference compound]
- Kd (K-Ras4B bound to GDP [1]; [8]): > 50000 µM

SMILES: CC(C)(c1ccc(O)cc1)c1ccc(O)cc1 [BPA, 2,2-Bis(4-hydroxyphenyl)propane]
- shift of Y157 amide resonance relative to the frequency in the active GppNHp-bound state (GDP-bound K-Ras4B): 49%
- interference with GEF (Sos)-mediated nucleotide exchange from GDP to GTP (K-Ras4B [2]): can interfere
- IC50 (Hela cells): 53.8 µM

SMILES: Oc1ccc(C(c2ccc(O)cc2)(C(F)(F)F)C(F)(F)F)cc1 [BPAF, 2,2-Bis(4-hydroxyphenyl)hexafluoropropane]
- shift of Y157 amide resonance relative to the frequency in the active GppNHp-bound state (GDP-bound K-Ras4B): 58%
- Kd (N-Ras (1-170)): 770 ± 20 µM
- Ras activity (G-LISA) (Ras): significant and time-dependent augmentation of Ras activity
- chemical shift perturbations (CSPs) on titration (Rap-1A): could not be detected
- IC50 (Hela cells): 17.8 µM
- level of phosphorylated AKT kinase (pAKT) (AKT kinase): slightly elevated levels of phosphorylated AKT kinase (pAKT) after 2 h
- antagonism of the interaction between GDP-bound K-Ras4B and SOScat [3]: can antagonise
- GDI-effect (inhibition of nucleotide dissociation) (K-Ras4B [4]): no or only a very small effect
- level of ERK phosphorylation / Ras signalling via c-Raf kinase (ERK): increased the level of ERK phosphorylation
- interference with the SOScat mediated nucleotide exchange (K-Ras4B [5]): interfere
- Kd (K-Ras4B bound to GDP [1]; [8]): 350 ± 20 µM
- Kd (K-Ras4B bound to GDP [1]; calculated from six binding pocket residues (L6, V9, Y40, L56, T74, G75), Fig. S1): 347 ± 5 µM
- Kd (H-Ras): 400 ± 20 µM

SMILES: CC(c1ccccc1)(c1ccc(O)cc1)c1ccc(O)cc1 [BPAP, 4,4′-(1-Phenylethylidene)bisphenol]
- solubility comment [6]: insoluble

SMILES: CCC(C)(c1ccc(O)cc1)c1ccc(O)cc1 [BPB, 2,2-Bis(4-hydroxyphenyl)butane]
- Kd (K-Ras4B bound to GDP [1]; [8]): 3600 µM

SMILES: Oc1ccc(C(c2ccccc2)(c2ccccc2)c2ccc(O)cc2)cc1 [BPBP, Bis(4-hydroxyphenyl)diphenylmethane]
- solubility comment [6]: insoluble

SMILES: CC(c1ccc(O)cc1)c1ccc(O)cc1 [BPE, 1,1-Bis(4-hydroxyphenyl)ethane]
- Kd (K-Ras4B bound to GDP [1]; [8]): 6500 µM

SMILES: Oc1ccc(Cc2ccc(O)cc2)cc1 [BPF, 4,4′-Methylenediphenol]
- Kd (K-Ras4B bound to GDP [1]; [8]): 14000 µM

SMILES: Oc1ccc(C2(c3ccc(O)cc3)c3ccccc3-c3ccccc32)cc1 [BPFL, 4,4′-(9-Fluorenylidene)diphenol]
- solubility comment [6]: insoluble

SMILES: Nc1cc(C(c2ccc(O)c(N)c2)(C(F)(F)F)C(F)(F)F)ccc1O [BPNH2, 2,2-Bis(3-amino-4-hydroxyphenyl)hexafluoropropane]
- shift of Y157 amide resonance relative to the frequency in the active GppNHp-bound state (GDP-bound K-Ras4B): approx. 64%
- IC50 (Hela cells): 33 µM
- level of phosphorylated AKT kinase (pAKT) (AKT kinase): clearly be detected already after 1 h
- GDI-effect (inhibition of nucleotide dissociation) (K-Ras4B [4]): significant GDI-effect
- Kd (K-Ras4B [4]; mantGppNHp, no SOScat, triplicate, read-out: KD from GDI-assay): 340 ± 20 µM
- level of ERK phosphorylation / Ras signalling via c-Raf kinase (ERK): failed to activate
- interference with the SOScat mediated nucleotide exchange (K-Ras4B [5]): interfere
- Kd (K-Ras4B [5]; kobs of mGDP dissociation versus ligand concentration, 0.5 µM SOScat, 20 °C, 5% DMSO, read-out: KD from SOScat-assay): 200 ± 100 µM
- Kd (K-Ras4B bound to GDP [1]; [8]): 400 µM

SMILES: O=S(=O)(c1ccc(O)cc1)c1ccc(O)cc1 [BPS, 4,4′-Sulfonyldiphenol]
- shift of Y157 amide resonance relative to the frequency in the active GppNHp-bound state (GDP-bound K-Ras4B): 20%
- interference with GEF (Sos)-mediated nucleotide exchange from GDP to GTP (K-Ras4B [2]): cannot interfere
- Kd (K-Ras4B bound to GDP [7]; listed as S): 6000 ± 700 µM
- Kd (K-Ras4B bound to GDP [7]): 5800 µM
- IC50 (Hela cells): 119 µM
